Experimental data from patent US11377469B2, “CD73 inhibitors” (ORIC Pharmaceuticals, Inc., priority 2017, dated 2022).

biological target: CD73 (Homo sapiens (Human), UniProt P21589); experiment: Biochemical Assay (CD73 inhibition, AMP hydrolysis, Malachite Green readout); settings: CD73 0.3208 nM, AMP 15 μM, Tris-HCl pH 7.4, Malachite Green absorbance
Sequence (P21589 27-574): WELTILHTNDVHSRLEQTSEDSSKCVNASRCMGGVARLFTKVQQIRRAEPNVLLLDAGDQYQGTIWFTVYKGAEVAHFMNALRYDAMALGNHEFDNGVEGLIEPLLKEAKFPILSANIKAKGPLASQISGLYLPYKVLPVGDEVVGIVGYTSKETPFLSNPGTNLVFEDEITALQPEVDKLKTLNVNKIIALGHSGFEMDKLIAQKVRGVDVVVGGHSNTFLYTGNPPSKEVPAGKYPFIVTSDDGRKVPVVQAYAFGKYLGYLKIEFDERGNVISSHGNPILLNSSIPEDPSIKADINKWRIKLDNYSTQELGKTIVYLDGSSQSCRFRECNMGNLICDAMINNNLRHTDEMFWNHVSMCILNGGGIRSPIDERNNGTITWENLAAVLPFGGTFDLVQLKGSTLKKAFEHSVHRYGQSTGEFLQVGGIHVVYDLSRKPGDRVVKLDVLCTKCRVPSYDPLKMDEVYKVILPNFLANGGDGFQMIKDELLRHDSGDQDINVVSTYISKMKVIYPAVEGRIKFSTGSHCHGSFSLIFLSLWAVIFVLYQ

`O=P(O)(O)COC[C@H]1O[C@@H](n2ncc3c(OCc4cccc(Cl)c4)nc(Cl)nc32)[C@H](O)[C@@H]1O` [Example 65, ((((2R,3S,4R,5R)-5-(6-chloro-4-((3-chlorobenzyl)oxy)-1H-pyrazolo[3,4-d]pyrimidin-1-yl)-3,4-dihydroxytetrahydrofuran-2-yl)methoxy)methyl)phosphonic acid] and `CC(C)CNc1nc(NCc2cccc(Cl)c2)c2cnn([C@@H]3O[C@H](COCP(=O)(O)O)[C@@H](O)[C@H]3O)c2n1` [Example 67, ((((2R,3S,4R,5R)-5-(4-((3-chlorobenzyl)amino)-6-(isobutylamino)-1H-pyrazolo[3,4-d]pyrimidin-1-yl)-3,4-dihydroxytetrahydrofuran-2-yl)methoxy)methyl)phosphonic acid] cannot be ordered by IC50: over 1000 nM for the first, over 1000 nM for the second.

`O=P(O)(O)CS(=O)(=O)C[C@H]1O[C@@H](n2ncc3c(NC4CCCC4)nc(Cl)nc32)[C@H](O)[C@@H]1O` [Example 66, (((((2S,3S,4R,5R)-5-(6-chloro-4-(cyclopentylamino)-1H-pyrazolo[3,4-d]pyrimidin-1-yl)-3,4-dihydroxytetrahydrofuran-2-yl)methyl)sulfonyl)methyl)phosphonic acid] and `O=P(O)(O)COC[C@H]1O[C@@H](n2ncc3c(NC4CCC4)nc(Cl)nc32)[C@H](O)[C@@H]1O` [Example 79, ((((2R,3S,4R,5R)-5-(6-chloro-4-(cyclobutylamino)-1H-pyrazolo[3,4-d]pyrimidin-1-yl)-3,4-dihydroxytetrahydrofuran-2-yl)methoxy)methyl)phosphonic acid] cannot be ordered by IC50: at most 500 nM for the first, at most 500 nM for the second.

`O=P(O)(O)COC[C@H]1O[C@@H](n2ncc3c(NCC4CCC4)nc(Cl)nc32)[C@H](O)[C@@H]1O` [Example 68, ((((2R,3S,4R,5R)-5-(6-chloro-4-((cyclobutylmethyl)amino)-1H-pyrazolo[3,4-d]pyrimidin-1-yl)-3,4-dihydroxytetrahydrofuran-2-yl)methoxy)methyl)phosphonic acid] and `O=P(O)(O)COC[C@H]1O[C@@H](n2ncc3c(NC[C@@H]4CCOC4)nc(Cl)nc32)[C@H](O)[C@@H]1O` [Example 71, ((((2R,3S,4R,5R)-5-(6-chloro-4-((((S)-tetrahydrofuran-3-yl)methyl)amino)-1H-pyrazolo[3,4-d]pyrimidin-1-yl)-3,4-dihydroxytetrahydrofuran-2-yl)methoxy)methyl)phosphonic acid] cannot be ordered by IC50: at most 500 nM for the first, at most 500 nM for the second.

`O=P(O)(O)COC[C@H]1O[C@@H](n2ncc3c(NC[C@@H]4CCCO4)nc(Cl)nc32)[C@H](O)[C@@H]1O` [Example 69, ((((2R,3S,4R,5R)-5-(6-chloro-4-((((S)-tetrahydrofuran-2-yl)methyl)amino)-1H-pyrazolo[3,4-d]pyrimidin-1-yl)-3,4-dihydroxytetrahydrofuran-2-yl)methoxy)methyl)phosphonic acid] and `O=P(O)(O)COC[C@H]1O[C@@H](n2ncc3c(NC[C@H]4CCCO4)nc(Cl)nc32)[C@H](O)[C@@H]1O` [Example 70, ((((2R,3S,4R,5R)-5-(6-chloro-4-((((R)-tetrahydrofuran-2-yl)methyl)amino)-1H-pyrazolo[3,4-d]pyrimidin-1-yl)-3,4-dihydroxytetrahydrofuran-2-yl)methoxy)methyl)phosphonic acid] cannot be ordered by IC50: at most 500 nM for the first, at most 500 nM for the second.

`CN(CC1CC1)c1nc(Cl)nc2c1cnn2[C@@H]1O[C@H](COCP(=O)(O)O)[C@@H](O)[C@H]1O` [Example 72, ((((2R,3S,4R,5R)-5-(6-chloro-4-((cyclopropylmethyl)(methyl)amino)-1H-pyrazolo[3,4-d]pyrimidin-1-yl)-3,4-dihydroxytetrahydrofuran-2-yl)methoxy)methyl)phosphonic acid] and `CN(CC1CC1)c1nc(Cl)nc2c1cnn2[C@@H]1O[C@H](CS(=O)(=O)CP(=O)(O)O)[C@@H](O)[C@H]1O` [Example 84, (((((2S,3S,4R,5R)-5-(6-chloro-4-((cyclopropylmethyl)(methyl)amino)-1H-pyrazolo[3,4-d]pyrimidin-1-yl)-3,4-dihydroxytetrahydrofuran-2-yl)methyl)sulfonyl)methyl)phosphonic acid] cannot be ordered by IC50: at most 500 nM for the first, at most 500 nM for the second.

`O=P(O)(O)COC[C@H]1O[C@@H](n2ncc3c(NC4CCOCC4)nc(Cl)nc32)[C@H](O)[C@@H]1O` [Example 73, ((((2R,3S,4R,5R)-5-(6-chloro-4-((tetrahydro-2H-pyran-4-yl)amino)-1H-pyrazolo[3,4-d]pyrimidin-1-yl)-3,4-dihydroxytetrahydrofuran-2-yl)methoxy)methyl)phosphonic acid] and `O=P(O)(O)COC[C@H]1O[C@@H](n2ncc3c(N[C@@H]4CCOC4)nc(Cl)nc32)[C@H](O)[C@@H]1O` [Example 80, ((((2R,3S,4R,5R)-5-(6-chloro-4-(((R)-tetrahydrofuran-3-yl)amino)-1H-pyrazolo[3,4-d]pyrimidin-1-yl)-3,4-dihydroxytetrahydrofuran-2-yl)methoxy)methyl)phosphonic acid] cannot be ordered by IC50: at most 500 nM for the first, at most 500 nM for the second.

`CC(C)Nc1nc(Cl)nc2c1cnn2[C@@H]1O[C@H](COCP(=O)(O)O)[C@@H](O)[C@H]1O` [Example 74, ((((2R,3S,4R,5R)-5-(6-chloro-4-(isopropylamino)-1H-pyrazolo[3,4-d]pyrimidin-1-yl)-3,4-dihydroxytetrahydrofuran-2-yl)methoxy)methyl)phosphonic acid] and `CCC(CC)Nc1nc(Cl)nc2c1cnn2[C@@H]1O[C@H](COCP(=O)(O)O)[C@@H](O)[C@H]1O` [Example 78, ((((2R,3S,4R,5R)-5-(6-chloro-4-(pentan-3-ylamino)-1H-pyrazolo[3,4-d]pyrimidin-1-yl)-3,4-dihydroxytetrahydrofuran-2-yl)methoxy)methyl)phosphonic acid] cannot be ordered by IC50: at most 500 nM for the first, at most 500 nM for the second.

`O=P(O)(O)COC[C@H]1O[C@@H](n2ncc3c(Nc4ccccc4)nc(Cl)nc32)[C@H](O)[C@@H]1O` [Example 75, ((((2R,3S,4R,5R)-5-(6-chloro-4-(phenylamino)-1H-pyrazolo[3,4-d]pyrimidin-1-yl)-3,4-dihydroxytetrahydrofuran-2-yl)methoxy)methyl)phosphonic acid] and `O=P(O)(O)COC[C@H]1O[C@@H](n2ncc3c(NC4CC4)nc(Cl)nc32)[C@H](O)[C@@H]1O` [Example 76, ((((2R,3S,4R,5R)-5-(6-chloro-4-(cyclopropylamino)-1H-pyrazolo[3,4-d]pyrimidin-1-yl)-3,4-dihydroxytetrahydrofuran-2-yl)methoxy)methyl)phosphonic acid] cannot be ordered by IC50: at most 500 nM for the first, at most 500 nM for the second.

`O=P(O)(O)COC[C@H]1O[C@@H](n2ncc3c(N4CCCC4)nc(Cl)nc32)[C@H](O)[C@@H]1O` [Example 81, ((((2R,3S,4R,5R)-5-(6-chloro-4-(pyrrolidin-1-yl)-1H-pyrazolo[3,4-d]pyrimidin-1-yl)-3,4-dihydroxytetrahydrofuran-2-yl)methoxy)methyl)phosphonic acid] and `O=P(O)(O)COC[C@H]1O[C@@H](n2ncc3c(N4CCC4)nc(Cl)nc32)[C@H](O)[C@@H]1O` [Example 83, ((((2R,3S,4R,5R)-5-(4-(azetidin-1-yl)-6-chloro-1H-pyrazolo[3,4-d]pyrimidin-1-yl)-3,4-dihydroxytetrahydrofuran-2-yl)methoxy)methyl)phosphonic acid] cannot be ordered by IC50: at most 500 nM for the first, at most 500 nM for the second.

Compared with `COc1nc(NCC2CC2)c2cnn([C@@H]3O[C@H](COCP(=O)(O)O)[C@@H](O)[C@H]3O)c2n1` [Example 82, ((((2R,3S,4R,5R)-5-(4-((cyclopropylmethyl)amino)-6-methoxy-1H-pyrazolo[3,4-d]pyrimidin-1-yl)-3,4-dihydroxytetrahydrofuran-2-yl)methoxy)methyl)phosphonic acid], `O=P(O)(O)COCC[C@H]1O[C@@H](n2ncc3c(NCC4CC4)nc(Cl)nc32)[C@H](O)[C@@H]1O` [Example 85, ((2-((2R,3S,4R,5R)-5-(6-chloro-4-((cyclopropylmethyl)amino)-1H-pyrazolo[3,4-d]pyrimidin-1-yl)-3,4-dihydroxytetrahydrofuran-2-yl)ethoxy)methyl)phosphonic acid] is higher in IC50: 500 to 1000 nM for the first, over 1000 nM for the second.

`O=P(O)(O)COC[C@H]1O[C@@H](n2ncc3c(NCC4CC(F)(F)C4)nc(Cl)nc32)[C@H](O)[C@@H]1O` [Example 86] and `C[C@]1(O)C[C@@H](CNc2nc(Cl)nc3c2cnn3[C@@H]2O[C@H](COCP(=O)(O)O)[C@@H](O)[C@H]2O)C1` [Example 89, ((((2R,3S,4R,5R)-5-(6-chloro-4-((((1s,3S)-3-hydroxy-3-methylcyclobutyl)methyl)amino)-1H-pyrazolo[3,4-d]pyrimidin-1-yl)-3,4-dihydroxytetrahydrofuran-2-yl)methoxy)methyl)phosphonic acid] cannot be ordered by IC50: at most 500 nM for the first, at most 500 nM for the second.

`O=P(O)(O)COC[C@H]1O[C@@H](n2ncc3c(NC4CC(F)(F)C4)nc(Cl)nc32)[C@H](O)[C@@H]1O` [Example 87, ((((2R,3S,4R,5R)-5-(6-chloro-4-((3,3-difluorocyclobutyl)amino)-1H-pyrazolo[3,4-d]pyrimidin-1-yl)-3,4-dihydroxytetrahydrofuran-2-yl)methoxy)methyl)phosphonic acid] and `C[C@H](Nc1nc(Cl)nc2c1cnn2[C@@H]1O[C@H](COCP(=O)(O)O)[C@@H](O)[C@H]1O)C1CC1` [Example 91, ((((2R,3S,4R,5R)-5-(6-chloro-4-(((S)-1-cyclopropylethyl)amino)-1H-pyrazolo[3,4-d]pyrimidin-1-yl)-3,4-dihydroxytetrahydrofuran-2-yl)methoxy)methyl)phosphonic acid] cannot be ordered by IC50: at most 500 nM for the first, at most 500 nM for the second.

First: O=P(O)(O)CS(=O)(=O)CC[C@H]1O[C@@H](n2ncc3c(NCC4CC4)nc(Cl)nc32)[C@H](O)[C@@H]1O [Example 88, (((2-((2R,3S,4R,5R)-5-(6-chloro-4-((cyclopropylmethy)amino)-1H-pyrazolo[3,4-d]pyrimidin-1-yl)-3,4-dihydroxytetrahydrofuran-2-yl)ethyl)sulfonyl)methyl)phosphonic acid]
Second: O=P(O)(O)COC[C@H]1O[C@@H](n2ncc3c(NCc4ncccn4)nc(Cl)nc32)[C@H](O)[C@@H]1O [Example 90, ((((2R,3S,4R,5R)-5-(6-chloro-4-((pyrimidin-2-ylmethyl)amino)-1H-pyrazolo[3,4-d]pyrimidin-1-yl)-3,4-dihydroxytetrahydrofuran-2-yl)methoxy)methyl)phosphonic acid]
The IC50 of the first is higher: over 1000 nM for the first, 500 to 1000 nM for the second. The second is the more potent here.
